Several values for one entry are separate records, joined by “and”; a condition that tells them apart may be missing. Identical values can stand only once. Toxic doses and inconclusive results are not listed. Rule as the data show it: active = T/C of 150% or more; inactive = T/C below 125%.
Tested on: L1210 leukemia ip in BDF1 mice, survival T/C
Test: NCI In Vivo Anticancer Drug Screen. Data for tumor model L1210 Leukemia (intraperitoneal) in B6D2F1 (BDF1) mice
Conditions: endpoint: mean survival time, higher = longer survival
In short: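 Mice bearing the transplanted tumor received compound or vehicle. Survival of the treated group was divided by that of the vehicle-treated control group to give the ratio.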

[1] = dose: 50.0 mg/kg/injection, schedule: Q04DX002 (ip), vehicle: Klucel (hydroxypropylcellulose) (HPC)
[2] = dose: 100.0 mg/kg/injection, schedule: Q04DX002 (ip), vehicle: Klucel (hydroxypropylcellulose) (HPC)
[3] = dose: 100.0 mg/kg/injection, schedule: Q01DX009 (ip), vehicle: saline
[4] = dose: 200.0 mg/kg/injection, schedule: Q01DX009 (ip), vehicle: saline
[5] = dose: 400.0 mg/kg/injection, schedule: Q01DX009 (ip), vehicle: saline
[6] = dose: 100.0 mg/kg/injection, schedule: Q01DX001 (ip), vehicle: saline
[7] = dose: 200.0 mg/kg/injection, schedule: Q01DX001 (ip), vehicle: saline
[8] = dose: 400.0 mg/kg/injection, schedule: Q01DX001 (ip), vehicle: saline
[9] = dose: 50.0 mg/kg/injection, schedule: Q01DX009 (ip), vehicle: saline
[10] = dose: 100.0 mg/kg/injection, schedule: Q04DX003 (ip), vehicle: Klucel (hydroxypropylcellulose) (HPC)
[11] = dose: 200.0 mg/kg/injection, schedule: Q04DX003 (ip), vehicle: Klucel (hydroxypropylcellulose) (HPC)
[12] = dose: 100.0 mg/kg/injection, schedule: Q04DX003 (ip), vehicle: saline
[13] = dose: 100.0 mg/kg/injection, schedule: Q01DX009 (ip), vehicle: Klucel (hydroxypropylcellulose) (HPC)
[14] = dose: 200.0 mg/kg/injection, schedule: Q01DX009 (ip), vehicle: Klucel (hydroxypropylcellulose) (HPC)
[15] = dose: 200.0 mg/kg/injection, schedule: Q04DX002 (ip), vehicle: Klucel (hydroxypropylcellulose) (HPC)
[16] = dose: 50.0 mg/kg/injection, schedule: Q01DX001 (ip), vehicle: saline

Measured: T/C

C#CC1CC2C3CCC4=CC(=O)CCC4(C)C3CCC2(C)C1N(C)C (centres undefined)
inactive: dose: 50.0 mg/kg/injection, schedule: Q01DX001 (sc), vehicle: steriod suspending solution 98 % of control | dose: 100.0 mg/kg/injection, schedule: Q01DX001 (sc), vehicle: steriod suspending solution 104 % of control

O=C(C[n+]1ccc2ccccc2c1)c1cccs1
inactive: dose: 25.0 mg/kg/injection, schedule: Q04DX002 (ip), vehicle: Klucel (hydroxypropylcellulose) (HPC) 90 % of control and 91 % of control | [1] 95 % of control and 90 % of control | [2] 98 % of control

C[N+](C)(C)CCP(=O)([O-])O
inactive: [3] 101 % of control | [4] 93 % of control | [5] 95 % of control

O=P(O)(O)OP(=O)(O)OP(=O)(O)OCC1OC(N2C=NC3C4NC=CN4CNC32)C(O)C1O (centres undefined)
inactive: dose: 3.13 mg/kg/injection, schedule: Q03HX024 (ip), vehicle: saline 97 % of control | dose: 6.25 mg/kg/injection, schedule: Q03HX024 (ip), vehicle: saline 93 % of control | dose: 7.5 mg/kg/injection, schedule: Q03HX024 (ip), vehicle: saline 95 % of control | dose: 15.0 mg/kg/injection, schedule: Q03HX024 (ip), vehicle: saline 93 % of control

CCCNC(=O)c1ccc(N)cc1
inactive: [6] 104 % of control | [7] 97 % of control | [8] 97 % of control

CCOC(=O)C1C(=O)N(O)c2cnccc21 (centres undefined)
inactive: [6] 107 % of control | [7] 107 % of control | [8] 88 % of control

Cc1ccc(S(=O)(=O)OCC(CO)(COS(=O)(=O)c2ccc(C)cc2)[N+](=O)[O-])cc1
inactive: [9] 104 % of control | [3] 94 % of control | [10] 97 % of control | [4] 96 % of control | [11] 105 % of control

CC(C)[CH2][Sn]([CH2]C(C)C)([CH2]C(C)C)[C](C)(C)C
inactive: dose: 100.0 mg/kg/injection, schedule: Q04DX002 (ip), vehicle: saline 94 % of control | dose: 200.0 mg/kg/injection, schedule: Q04DX002 (ip), vehicle: saline 90 % of control | dose: 400.0 mg/kg/injection, schedule: Q04DX002 (ip), vehicle: saline 100 % of control

CSc1ncc2cnccn12
inactive: dose: 25.0 mg/kg/injection, schedule: Q01DX009 (ip), vehicle: water 95 % of control | dose: 25.0 mg/kg/injection, schedule: Q04DX003 (ip), vehicle: saline 106 % of control | dose: 50.0 mg/kg/injection, schedule: Q01DX009 (ip), vehicle: water 102 % of control | dose: 50.0 mg/kg/injection, schedule: Q04DX003 (ip), vehicle: saline 101 % of control | dose: 100.0 mg/kg/injection, schedule: Q01DX009 (ip), vehicle: water 102 % of control | [12] 101 % of control | dose: 100.0 mg/kg/injection, schedule: Q04DX003 (ip), vehicle: water 93 % of control

O=C(CN1C(=O)C(=O)O/C1=C/c1ccccc1)OCc1ccccc1
inactive: [13] 105 % of control | [14] 103 % of control

O=C1c2ccccc2-c2cc(Br)c([N+](=O)[O-])cc21
inactive: dose: 50.0 mg/kg/injection, schedule: Q01DX001 (ip), vehicle: carboxymethylcellulose (CMC) 93 % of control | dose: 100.0 mg/kg/injection, schedule: Q01DX001 (ip), vehicle: carboxymethylcellulose (CMC) 96 % of control | dose: 200.0 mg/kg/injection, schedule: Q01DX001 (ip), vehicle: carboxymethylcellulose (CMC) 86 % of control | dose: 400.0 mg/kg/injection, schedule: Q01DX001 (ip), vehicle: carboxymethylcellulose (CMC) 88 % of control

O=S(=O)(CBr)CC(Cl)c1ccccc1 (centres undefined)
inactive: [2] 100 % of control | [15] 106 % of control | dose: 400.0 mg/kg/injection, schedule: Q04DX002 (ip), vehicle: Klucel (hydroxypropylcellulose) (HPC) 100 % of control

O=C1CCCC2C1C1(O)CCC2(O)c2cccc(O)c21 (centres undefined)
inactive: dose: 6.25 mg/kg/injection, schedule: Q01DX009 (ip), vehicle: saline 109 % of control | dose: 12.5 mg/kg/injection, schedule: Q01DX009 (ip), vehicle: saline 102 % of control | dose: 25.0 mg/kg/injection, schedule: Q01DX009 (ip), vehicle: saline 101 % of control | [9] 98 % of control | [6] 96 % of control | [3] 91 % of control | [7] 103 % of control

O=S(=O)(Cl)C1c2ccccc2-c2ccccc21
inactive: dose: 100.0 mg/kg/injection, schedule: Q04DX002 (ip), vehicle: other 104 % of control | dose: 200.0 mg/kg/injection, schedule: Q04DX002 (ip), vehicle: other 96 % of control | dose: 400.0 mg/kg/injection, schedule: Q04DX002 (ip), vehicle: other 90 % of control

O=C(CCCC(=O)N/N=C/c1cc(O)ccc1O)N/N=C\c1cc(O)ccc1O
inactive: [16] 102 % of control | [6] 96 % of control | [7] 90 % of control | [8] 98 % of control

CC(C)c1ccc(C(=O)C(O)c2ccc(C(C)C)cc2)cc1 (centres undefined)
inactive: dose: 100.0 mg/kg/injection, schedule: Q01DX009 (ip), vehicle: saline with Tween-80 93 % of control | dose: 200.0 mg/kg/injection, schedule: Q01DX009 (ip), vehicle: saline with Tween-80 97 % of control | dose: 400.0 mg/kg/injection, schedule: Q01DX009 (ip), vehicle: saline with Tween-80 97 % of control

O=C1C(O)=C(c2ccccc2)C(=O)C(O)=C1c1ccccc1
inactive: dose: 25.0 mg/kg/injection, schedule: Q01DX001 (ip), vehicle: saline 95 % of control | dose: 25.0 mg/kg/injection, schedule: Q01DX009 (ip), vehicle: Klucel (hydroxypropylcellulose) (HPC) 100 % of control | [16] 104 % of control | dose: 50.0 mg/kg/injection, schedule: Q01DX009 (ip), vehicle: Klucel (hydroxypropylcellulose) (HPC) 105 % of control | [1] 98 % of control | [6] 96 % of control | [2] 120 % of control | [7] 104 % of control | [15] 91 % of control

N=C(N[N+](=O)[O-])N(CCC(=O)O)N=O
inactive: [16] 100 % of control | [9] 90 % of control | dose: 53.0 mg/kg/injection, schedule: Q01DX015 (ip), vehicle: saline 113 % of control | dose: 79.0 mg/kg/injection, schedule: Q01DX015 (ip), vehicle: saline 124 % of control | dose: 100.0 mg/kg/injection, schedule: Q01DX001 (ip), vehicle: other 97 % of control | [6] 107 % of control | dose: 100.0 mg/kg/injection, schedule: Q01DX009 (ip), vehicle: other 103 % of control | [3] 96 % of control | [12] 96 % of control | dose: 178.0 mg/kg/injection, schedule: Q01DX001 (ip), vehicle: saline 109 % of control and 122 % of control | dose: 178.0 mg/kg/injection, schedule: Q01DX015 (ip), vehicle: saline 116 % of control | dose: 200.0 mg/kg/injection, schedule: Q01DX001 (ip), vehicle: other 101 % of control | [7] 113 % of control | dose: 200.0 mg/kg/injection, schedule: Q01DX009 (ip), vehicle: other 98 % of control | [4] 104 % of control | dose: 200.0 mg/kg/injection, schedule: Q04DX003 (ip), vehicle: saline 98 % of control | dose: 267.0 mg/kg/injection, schedule: Q01DX001 (ip), vehicle: saline 112 % of control and 121 % of control | dose: 400.0 mg/kg/injection, schedule: Q01DX001 (ip), vehicle: other 100 % of control | dose: 400.0 mg/kg/injection, schedule: Q01DX009 (ip), vehicle: other 98 % of control | [5] 100 % of control | dose: 400.0 mg/kg/injection, schedule: Q04DX003 (ip), vehicle: saline 91 % of control | dose: 600.0 mg/kg/injection, schedule: Q01DX001 (ip), vehicle: other 94 % of control | dose: 800.0 mg/kg/injection, schedule: Q01DX001 (ip), vehicle: other 92 % of control | dose: 800.0 mg/kg/injection, schedule: Q01DX001 (ip), vehicle: saline 86 % of control

CCc1ccc(NC(=O)C(c2ccccc2)c2ccccc2)cc1
inactive: dose: 50.0 mg/kg/injection, schedule: Q04DX003 (ip), vehicle: Klucel (hydroxypropylcellulose) (HPC) 101 % of control | [13] 92 % of control | [10] 100 % of control | [14] 89 % of control | [11] 93 % of control | dose: 400.0 mg/kg/injection, schedule: Q01DX009 (ip), vehicle: Klucel (hydroxypropylcellulose) (HPC) 89 % of control | dose: 400.0 mg/kg/injection, schedule: Q04DX003 (ip), vehicle: Klucel (hydroxypropylcellulose) (HPC) 93 % of control

From PubChem BioAssay AID248 (DTP/NCI, 2004)
